Measured values reported in patent US12291502B2, “Topoisomerase II-alpha inhibitors and methods of treating cancer using the same” (The Regents of the University of Colorado, priority 2019, dated 2025).
“Also recorded” adds a separate entry of the source. Where two headings read alike, the source gives them in different places.

Experiments:
[1] = test system: vimentin promoter activity (VimPro-GFP) in SW620 cells; experiment: VimPro-GFP EMT reporter assay
Procedure: VimPro-GFP and EcadPro-mCherry reporter assays. VimPiro-GFP: SW620 cells were first transduced with NucLight Red virus (Essen BioSciences) and selected with Zeocin at 200 μg/mL, and then transduced with pCDH-VimPro-GFP-EF1-puro virus and selected with puromycin at 4 μg/mL. The dual fluorescently labeled cells were plated and treated in 3D tumor organoid as described. Tumor organoid images were recorded every 2 hours over a 72 hours period using an incucyte ZOOM content imaging system (Essen BioSciences) or PerkinElmer Phenix imager (PerkinElmer).
Analogs were also assessed for their ability to modulate or reverse EMT using VimPro-GFP and EcadPro-RFP SW620 reporter cells cultured as tumor organoids, determining EC50 dose responses over 72 hours (Table 2).
VimPro-GFP and EcadPro-RFP reporter assays. Stable VimPro-GFP or EcadPro-RFP SW620 reporter cells were generated using pCDH-VimPro-GFP-EF1-puro virus or pCDH-EcadPro-mCherry-EF1-puro virus as previously reported. […] Transduced cells were selected with puromycin at 2 μg/mL. The stable fluorescent labeled reporter cells were then used to generate tumor organoids as described. Tumor organoids were then treated with TOP2A inhibitors at 10 μM for an additional 72 h. Following treatment, tumor organoids were stained with 16 μM of Hoechst 33342 for 1 h, which functions as a nuclear stain for imaging segmentation. Images were taken with a 5× air objective. Z stacks were set at 20 μm apart for a total of 7 layers. Imaging analysis was performed using an Opera Phenix high content screening (HCS) system and Harmony high-content imaging and analysis software interface (PerkinElmer, MA). Nuclei were identified with Hoechst 33342 stain within each layer, and cells were found with either GFP or mCherry channel. The intensities of each fluorescence channel within the cells were calculated and thresholds were set based on the background intensities. Percentages of GFP or mCherry positive cells were calculated and normalized to the DMSO treated group.
VimPro-GFP and EcadPro-RFP reporter assays. Stable VimPro-GFP or EcadPro-RFP SW620 reporter cells were generated using pCDH-VimPro-GFP-EF1-puro virus or pCDH-EcadPro-mCherry-EF1-puro virus as previously reported. […] Transduced cells were selected with puromycin at 2 μg/mL. The stable fluorescent labeled reporter cells were then used to generate tumor organoids as described. Tumor organoids were then treated with TOP2A inhibitors at 10 μM for an additional 72 h. Following treatment, tumor organoids were stained with 16 μM of Hoechst 33342 for 1 h, which functions as a nuclear stain for imaging segmentation. Images were taken with a 5× air objective.

[2] = test system: E-cadherin promoter activity (EcadPro-RFP) in SW620 cells; experiment: EcadPro-RFP (mCherry) EMT reporter assay; assay type: cell-based; details: SW620 tumor organoids; for EC50: Table 2, 72 hours, read-out: % E-cadherin upregulation EC50
Description: (§1) VimPro-GFP and EcadPro-RFP reporter assays. […] 35(38): p. 4990-9.]
as §1

SW620 tumor organoids = experiment: Tumor organoid cytotoxicity / 3D cell viability (CellTox Green); assay type: cell-based
Procedure: Tumor organoid cytotoxicity. Fluorescence image-based method: The CellTox™ Green assay (Promega, Madison, WI, USA) was used with 3D tumor organoid to measure spheroid death. 0.1% CellTox™ Green was included in each well at the time of analogs dosing. 10% lysis solution was used as a cell death control. Fluorescence was measured at various time points with 465-510 nm excitation and 520-530 nm emission. Luminescence plate reader method: A 1:1 ratio of CellTiter-Glo™ 3D reagent (Promega) was added to 3D tumor organoid and the plate was shaken at 400 rpm for 30 min before luminescence was read with a PerkinElmer Envision plate reader.
Finally, SW620 tumor organoid cytotoxicity experiments were conducted using the CellTox Green assay, a fluorescence image-based method, to determine whether the inhibition of TCF transcription and effects on EMT are not the result of cytotoxicity. […] All of the analogs tested display IC50 dose response >30 μM and were higher compared to the IC50 values obtained during the downregulation of TCF transcription activity, and the EC50 values obtained for EMT modulation. Thus, the biological effects on TCF-transcription and EMT are not a result of tumor organoid cell death.
(§2) Tumor organoid cytotoxicity. SW620 tumor organoids were grown as previously outlined. CellTox™ Green-Express Cytotoxicity Assay (Promega, WI) solution was prepared per manufacturer's protocol. Briefly, organoids were treated for 72 h with CellTox™ Green Express (0.5×) reagent and various doses of TOP2A inhibitors over a range of 0-to-40 μM. Organoids were then imaged using the Opera Phenix HCS system (PerkinElmer, MA). CellTox™ Green Express was excited at 488 nm and emission was detected at 500-550 nm. Mean intensity of the whole well was utilized for calculating cytotoxicity with Lysis Buffer (Promega, WI, 0.025×) as the 0% viability control and 0.4% DMSO as the 100% viability control. Intensity values were normalized to these controls using GraphPad Prism 7.0 (GraphPad, CA).
as §2, with “CellTox™-Green-Express” for “CellTox™ Green-Express”, “(GraphPad.” for “(GraphPad,”

[3] = test system: H2AX S139 phosphorylation (γ-H2AX) in colon cancer cell lines HT29 and SW620; experiment: γ-H2AX DNA damage assay (immunofluorescence); assay type: cell-based; details: 0-40 μM for Neo, 7, BAP1, 5-100 μM for etoposide
Procedure: γ-H2AXDNA damage assay. Colon cancer cell lines HT29 and SW620 were plated to black clear bottom 96 well plates at 20,000 cells/well in 100 μL of phenol red free medium. […] Cells were fixed with 4% paraformaldehyde at room temp for 20 min, washed 3 times with 400 μL/well of PBS, permeabilized and blocked with 100 μL of 3% BSA and 0.1% IGEPAL in PBS for 20 min. Cells were then incubated in γ-H2AX primary antibody (Cell Signaling, 1:400 dilution) at 4° C. overnight, washed 4 times with PBS, and incubated with FITC conjugated anti-rabbit secondary antibody (Cell Signaling, 1:200 dilution) at room temp for 1 hour, and washed 4 times with PBS. Cells were stained with 10 μM of Hoechst 33342 at room temp for 10 min, washed 4 times with PBS before imaged with a 20× objective using PerkinElmer Operetta imager.

[4] = Homo sapiens, SW-620, 72 h, read-out: % Vimentin downregulation EC50 (μM)
[5] = Homo sapiens, SW-620, Table 2, 72 hours
[6] = read-out: % Vimentin downregulation EC50, Table 2, SW620 tumor organoids, 72 hours

Compound	EC50 [1, 4]	EC50 ([2]; Homo sapiens, SW-620)	IC50 (SW620 tumor organoids; [5])	EC50 [1, 6]	EC50 [2]	IC50 (SW620 tumor organoids; Table 2, 72 hours)	DNA double stranded breaks (γ-H2AX) [3]	also measured
O=C(CCN1CCOCC1)Nc1ccc2c(-c3cc(F)ccc3O)ccnc2c1O [Analog 42]	13.2 µM	5.9 µM	> 30 µM	–	–	–	–	–
CC(C)(C)C(=O)Nc1ccc2c(-c3ccccc3)ccnc2c1O [Analog 39]	–	–	–	4.7 µM	3.1 µM	> 30 µM	–	–
CC(=O)Nc1ccc2c(-c3cc(F)ccc3O)ccnc2c1O [Analog 7]	10.8 µM	5.3 µM	> 30 µM	–	–	–	do not damage DNA; also recorded: do not cause DNA DSBs	vimentin downregulation (VimPro-GFP), in words ([1]; SW620 tumor organoids): dose-dependent downregulation of vimentin; E-cadherin upregulation (EcadPro-RFP), in words [2]: upregulation of E-cadherin
Cn1ccc2c(c1=O)C(=O)c1nccc3c1C2NC1=CCC=CC13 (centres unmarked) [neo, neoamphimedine, reference compound]	–	–	–	–	–	–	do not damage DNA	DNA double stranded breaks (γ-H2AX) ([3]; listed as Neo): do not cause DNA DSBs
CC(=O)Nc1ccc2c(-c3ccoc3)ccnc2c1O [Analog 56]	25.7 µM	10.6 µM	> 30 µM	–	–	–	–	–
CC(=O)Nc1ccc(-c2ccnc3c(O)c(NC(C)=O)ccc23)cc1 [Analog 35]	–	–	–	9.5 µM	5.5 µM	> 30 µM	–	–
